The nature of data set [1]: Physical stability of peptide analogues (Thioflavin T fibrillation). It is filed as physicochemical. The settings on record: maximum ThT signal normalized between hAMY maximum and buffer background; 40° C., shaking, four days; pH 7 per table title. The method, boiled down:
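Peptides in 50 mM sodium acetate pH 4 or 50 mM sodium phosphate pH 7 were preincubated 1 h, mixed with 4 μM ThT, held at 40° C with 700 rpm shaking before each read. Fluorescence (ex 450/em 480 nm) every 10 min for four days; LOESS-smoothed maximum signal normalized in percent between hAMY and buffer.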

The target of a further data set is T1, hAMY3 receptor (Homo sapiens, UniProt O60896+P30988).
T1 sequence (P30988 25-474): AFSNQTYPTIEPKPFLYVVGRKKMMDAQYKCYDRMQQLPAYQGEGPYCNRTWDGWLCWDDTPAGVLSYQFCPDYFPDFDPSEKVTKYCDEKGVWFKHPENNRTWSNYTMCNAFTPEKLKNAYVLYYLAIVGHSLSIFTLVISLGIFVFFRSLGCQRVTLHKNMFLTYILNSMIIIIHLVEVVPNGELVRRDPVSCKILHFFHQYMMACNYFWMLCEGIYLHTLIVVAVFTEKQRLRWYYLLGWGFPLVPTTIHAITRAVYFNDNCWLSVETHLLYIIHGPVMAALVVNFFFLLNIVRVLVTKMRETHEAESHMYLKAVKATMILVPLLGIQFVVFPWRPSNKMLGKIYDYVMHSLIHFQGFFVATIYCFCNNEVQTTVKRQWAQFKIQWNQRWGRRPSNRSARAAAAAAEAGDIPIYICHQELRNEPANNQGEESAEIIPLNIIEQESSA
T1 sequence (O60896 24-148 partner): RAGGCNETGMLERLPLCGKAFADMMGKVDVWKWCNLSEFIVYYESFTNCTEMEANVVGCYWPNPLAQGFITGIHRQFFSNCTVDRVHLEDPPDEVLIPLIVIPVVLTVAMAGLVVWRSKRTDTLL
As to the kind of experiment: cAMP assay for in vitro receptor activation, hAMY3-R. It is filed as cell-based. The conditions noted are these: cAMP assay, hAMY3 receptor; read-out: hAMY3R EC50. The method, boiled down:
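Monoclonal cell line stably overexpressing hAMY3 receptor, plated in DPBS with 0.05% casein and 0.5 mM IBMX, was stimulated with graded compound doses for 30 min at room temperature. cAMP accumulation was read by time-resolved FRET one hour after adding detection reagents.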
On the technique in general: Cyclic AMP is a second messenger, typically raised through Gs and lowered through Gi signalling.

The values below come from patent US12139520B2 (priority 2020, dated 2024).

Bridge positions count the residues as written; N and C are the ends. Square brackets hold non-standard residues; d marks the D form. Peptide text beside a SMILES is read from it. Hyp = O=C(O)[C@@H]1C[C@@H](O)CN1

A word on the EC50: it is the midpoint of the concentration-response curve.

In the case of `CC[C@H](C)[C@H](NC(=O)[C@H](CCC(N)=O)NC(=O)[C@H](Cc1c[nH]cn1)NC(=O)[C@H](C)NC(=O)[C@H](CC(C)C)NC(=O)[C@H](CCCNC(=N)N)NC(=O)[C@H](CCC(N)=O)NC(=O)[C@@H](NC(=O)[C@@H](NC(=O)[C@@H]1CSSC[C@H](NC(=O)CN)C(=O)N[C@@H](CCCNC(=N)N)C(=O)N[C@@H]([C@@H](C)O)C(=O)NCC(=O)N[C@@H]([C@@H](C)O)C(=O)N1)[C@@H](C)O)C(C)C)C(=O)N[C@@H](Cc1ccc(O)cc1)C(=O)N[C@@H](CCC(N)=O)C(=O)N[C@@H](Cc1ccccc1)C(=O)N[C@H](C(=O)N[C@@H](CC(=O)O)C(=O)N[C@@H](CCCCN)C(=O)N[C@@H](Cc1ccccc1)C(=O)N[C@@H](CCCCN)C(=O)N[C@@H](CC(=O)O)C(=O)N[C@@H](CC(N)=O)C(=O)N[C@H](C(=O)N[C@@H](C)C(=O)N1CCC[C@H]1C(=O)N[C@@H](CCCNC(=N)N)C(=O)N[C@@H](CO)C(=O)N[C@@H](CCCCN)C(=O)N[C@H](C(=O)N[C@@H](CO)C(=O)N1CCC[C@H]1C(=O)N[C@@H](CCC(N)=O)C(=O)N[C@H](C(=O)N[C@@H](Cc1c[nH]c2ccccc12)C(N)=O)[C@@H](C)O)[C@@H](C)CC)C(C)C)[C@@H](C)O` [compound 184] (H-GCRTGTCTVQRLAHQIYQFTDKFKDNVAPRSKISPQTW-NH2; disulfide 2-7; N-terminus assumed), the “Max ThT signal (%)” value in data set [1] is recorded as 0.800%. In addition, the EC50 on hAMY3 receptor turned out to be 0.09 nM.

For the compound `CC[C@H](C)[C@H](NC(=O)[C@H](CC(N)=O)NC(=O)[C@H](CO)NC(=O)[C@H](CCCNC(=N)N)NC(=O)[C@@H]1CCCN1C(=O)[C@H](C)NC(=O)[C@@H](NC(=O)[C@H](CC(N)=O)NC(=O)[C@H](CC(=O)O)NC(=O)[C@H](CCCCN)NC(=O)[C@H](CC(=O)O)NC(=O)[C@H](CCCCN)NC(=O)[C@H](CC(=O)O)NC(=O)[C@@H](NC(=O)[C@H](Cc1ccccc1)NC(=O)[C@H](CCC(N)=O)NC(=O)[C@H](Cc1ccc(O)cc1)NC(=O)[C@@H](NC(=O)[C@H](CCC(N)=O)NC(=O)[C@H](Cc1c[nH]cn1)NC(=O)[C@H](C)NC(=O)[C@H](CC(C)C)NC(=O)[C@H](CCCNC(=N)N)NC(=O)[C@H](CCC(N)=O)NC(=O)[C@@H](NC(=O)[C@@H](NC(=O)[C@@H]1CSSC[C@H](NC(=O)CN)C(=O)N[C@@H](CCCNC(=N)N)C(=O)N[C@@H]([C@@H](C)O)C(=O)NCC(=O)N[C@@H]([C@@H](C)O)C(=O)N1)[C@@H](C)O)C(C)C)[C@@H](C)CC)[C@@H](C)O)C(C)C)C(=O)NCC(=O)N1CCC[C@H]1C(=O)N[C@@H](CCC(N)=O)C(=O)NCC(=O)N[C@@H](Cc1ccc(O)cc1)C(N)=O` [compound 191] (H-GCRTGTCTVQRLAHQIYQFTDKDKDNVAPRSNIGPQGY-NH2; disulfide 2-7; N-terminus assumed), in data set [1], the “Max ThT signal (%)” value is reported as 6.300%. Besides, the half-maximal effective concentration (EC50) on hAMY3 receptor turned out to be 0.098 nM.

With `CC[C@H](C)[C@H](NC(=O)[C@H](CCC(N)=O)NC(=O)[C@H](Cc1c[nH]cn1)NC(=O)[C@H](C)NC(=O)[C@H](CC(C)C)NC(=O)[C@H](CCCNC(=N)N)NC(=O)[C@H](CCC(N)=O)NC(=O)[C@@H](NC(=O)[C@@H](NC(=O)[C@@H]1CSSC[C@H](NC(=O)[C@@H](N)CCCCN)C(=O)N[C@@H](CCCNC(=N)N)C(=O)N[C@@H](CCSC)C(=O)NCC(=O)N[C@@H]([C@@H](C)O)C(=O)N1)[C@@H](C)O)C(C)C)C(=O)N[C@@H](Cc1ccc(O)cc1)C(=O)N[C@@H](CCC(N)=O)C(=O)N[C@@H](Cc1ccccc1)C(=O)N[C@H](C(=O)N[C@@H](CC(=O)O)C(=O)N[C@@H](CCCCN)C(=O)N[C@@H](CC(=O)O)C(=O)N[C@@H](CCCCN)C(=O)N[C@@H](CC(=O)O)C(=O)N[C@@H](CC(N)=O)C(=O)N[C@H](C(=O)N[C@@H](C)C(=O)N1CCC[C@H]1C(=O)N[C@@H](CCCNC(=N)N)C(=O)N[C@@H](CO)C(=O)N[C@@H](CCCCN)C(=O)N[C@H](C(=O)N[C@@H](CO)C(=O)N1CCC[C@H]1C(=O)N[C@@H](CCC(N)=O)C(=O)N[C@H](C(=O)N1C[C@H](O)C[C@H]1C(N)=O)[C@@H](C)O)[C@@H](C)CC)C(C)C)[C@@H](C)O` [compound 194] (H-KCRMGTCTVQRLAHQIYQFTDKDKDNVAPRSKISPQT[Hyp]-NH2; disulfide 2-7; N-terminus assumed), the “Max ThT signal (%)” value in data set [1] is recorded as 6.000%. Moreover, the concentration giving a half-maximal response (EC50) on hAMY3 receptor amounted to 0.112 nM.

Regarding `CC[C@H](C)[C@H](NC(=O)[C@H](CCC(N)=O)NC(=O)[C@H](Cc1c[nH]cn1)NC(=O)[C@H](C)NC(=O)[C@H](CC(C)C)NC(=O)[C@H](CCCNC(=N)N)NC(=O)[C@H](CCC(N)=O)NC(=O)[C@@H](NC(=O)[C@@H](NC(=O)[C@@H]1CSSC[C@H](NC(=O)CN)C(=O)N[C@@H](CCCNC(=N)N)C(=O)N[C@@H]([C@@H](C)O)C(=O)NCC(=O)N[C@@H]([C@@H](C)O)C(=O)N1)[C@@H](C)O)C(C)C)C(=O)N[C@@H](Cc1ccc(O)cc1)C(=O)N[C@@H](CCC(N)=O)C(=O)N[C@@H](Cc1ccccc1)C(=O)N[C@H](C(=O)N[C@@H](CC(=O)O)C(=O)N[C@@H](CCCCN)C(=O)N[C@@H](Cc1ccccc1)C(=O)N[C@@H](CCCCN)C(=O)N[C@@H](CC(=O)O)C(=O)N[C@@H](CC(N)=O)C(=O)N[C@H](C(=O)N[C@@H](C)C(=O)N1CCC[C@H]1C(=O)N[C@@H](CCCNC(=N)N)C(=O)N[C@@H](CO)C(=O)N[C@@H](CCCCN)C(=O)N[C@H](C(=O)N[C@@H](CO)C(=O)N1CCC[C@H]1C(=O)N[C@@H](CCC(N)=O)C(=O)N[C@@H](Cc1c[nH]cn1)C(=O)N1C[C@H](O)C[C@H]1C(N)=O)[C@@H](C)CC)C(C)C)[C@@H](C)O` [compound 201] (H-GCRTGTCTVQRLAHQIYQFTDKFKDNVAPRSKISPQH[Hyp]-NH2; disulfide 2-7; N-terminus assumed), in data set [1], the “Max ThT signal (%)” value is on record as 1.000%. Moreover, the EC50 at hAMY3 receptor is 0.126 nM.

As to `CC[C@H](C)[C@H](NC(=O)[C@H](CCC(N)=O)NC(=O)[C@H](Cc1c[nH]cn1)NC(=O)[C@H](C)NC(=O)[C@H](CC(C)C)NC(=O)[C@H](CCCNC(=N)N)NC(=O)[C@H](CCC(N)=O)NC(=O)[C@@H](NC(=O)[C@@H](NC(=O)[C@@H]1CSSC[C@H](NC(=O)[C@@H](N)CCCCN)C(=O)N[C@@H](CCCNC(=N)N)C(=O)N[C@@H](Cc2ccccc2)C(=O)NCC(=O)N[C@@H]([C@@H](C)O)C(=O)N1)[C@@H](C)O)C(C)C)C(=O)N[C@@H](Cc1ccc(O)cc1)C(=O)N[C@@H](CCC(N)=O)C(=O)N[C@@H](Cc1ccccc1)C(=O)N[C@H](C(=O)N[C@@H](CC(=O)O)C(=O)N[C@@H](CCCCN)C(=O)N[C@@H](CC(=O)O)C(=O)N[C@@H](CCCCN)C(=O)N[C@@H](CC(=O)O)C(=O)N[C@@H](CC(N)=O)C(=O)N[C@H](C(=O)N[C@@H](C)C(=O)N1CCC[C@H]1C(=O)N[C@@H](CCCNC(=N)N)C(=O)N[C@@H](CO)C(=O)N[C@@H](CCCCN)C(=O)N[C@H](C(=O)N[C@@H](CO)C(=O)N1CCC[C@H]1C(=O)N[C@@H](CCC(N)=O)C(=O)N[C@H](C(=O)N1C[C@H](O)C[C@H]1C(N)=O)[C@@H](C)O)[C@@H](C)CC)C(C)C)[C@@H](C)O` [compound 205] (H-KCRFGTCTVQRLAHQIYQFTDKDKDNVAPRSKISPQT[Hyp]-NH2; disulfide 2-7; N-terminus assumed), the “Max ThT signal (%)” value in data set [1] is given as 7.800%. On hAMY3 receptor, the EC50 came to 0.13 nM.

Take `CC[C@H](C)[C@H](NC(=O)[C@H](CCC(N)=O)NC(=O)[C@H](Cc1c[nH]cn1)NC(=O)[C@H](C)NC(=O)[C@H](CC(C)C)NC(=O)[C@H](CCCNC(=N)N)NC(=O)[C@H](CCC(N)=O)NC(=O)[C@@H](NC(=O)[C@@H](NC(=O)[C@@H]1CSSC[C@H](NC(=O)CN)C(=O)N[C@@H](CCCNC(=N)N)C(=O)N[C@@H]([C@@H](C)O)C(=O)NCC(=O)N[C@@H]([C@@H](C)O)C(=O)N1)[C@@H](C)O)C(C)C)C(=O)N[C@@H](Cc1ccc(O)cc1)C(=O)N[C@@H](CCC(N)=O)C(=O)N[C@@H](Cc1ccccc1)C(=O)N[C@H](C(=O)N[C@@H](CC(=O)O)C(=O)N[C@@H](CCCCN)C(=O)N[C@@H](CC(=O)O)C(=O)N[C@@H](CCCCN)C(=O)N[C@@H](CC(=O)O)C(=O)N[C@@H](CC(N)=O)C(=O)N[C@H](C(=O)N[C@@H](C)C(=O)N1CCC[C@H]1C(=O)N[C@@H](CCCNC(=N)N)C(=O)N[C@H](C(=O)N[C@@H](CC(N)=O)C(=O)N[C@H](C(=O)N[C@@H](CO)C(=O)N1CCC[C@H]1C(=O)N[C@@H](CCC(N)=O)C(=O)NCC(=O)N1C[C@H](O)C[C@H]1C(N)=O)[C@@H](C)CC)[C@@H](C)O)C(C)C)[C@@H](C)O` [compound 214] (H-GCRTGTCTVQRLAHQIYQFTDKDKDNVAPRTNISPQG[Hyp]-NH2; disulfide 2-7; N-terminus assumed): in data set [1], the “Max ThT signal (%)” value came out at 2.700%. Further, at hAMY3 receptor, the concentration for a half-maximal effect (EC50) amounted to 0.157 nM.
